Source: the NIST ThermoML archive (doi:10.1021/je049612f)

Conditions: Gas, Vibrating wire viscometry

FS(F)(F)(F)(F)F [sulfur hexafluoride]
Conditions | viscosity [mPa·s]
375 K, 11030 kPa | 0.06052
375 K, 11466 kPa | 0.06322
375 K, 12235 kPa | 0.0678
375 K, 12730 kPa | 0.07044
375 K, 13213 kPa | 0.07319
375 K, 13867 kPa | 0.07655
375 K, 14447 kPa | 0.07948
375 K, 15713 kPa | 0.08527
375 K, 16802 kPa | 0.09
400 K, 100.75 kPa | 0.0197
400 K, 127.69 kPa | 0.01971
400 K, 153.61 kPa | 0.01972
400 K, 174.48 kPa | 0.01973
400 K, 200.5 kPa | 0.01973
400 K, 224.7 kPa | 0.01975
400 K, 249.97 kPa | 0.01975
400 K, 276.92 kPa | 0.01976
400 K, 316.57 kPa | 0.01977
400 K, 356.06 kPa | 0.01979
400 K, 387.16 kPa | 0.0198
400 K, 431.42 kPa | 0.01981
400 K, 458.7 kPa | 0.01982
400 K, 482.84 kPa | 0.01983
400 K, 520.38 kPa | 0.01984
400 K, 569.64 kPa | 0.01987
400 K, 636.33 kPa | 0.01989
400 K, 669.9 kPa | 0.0199
400 K, 702.5 kPa | 0.01991
400 K, 753.74 kPa | 0.01994
400 K, 791.41 kPa | 0.01995
400 K, 818.44 kPa | 0.01996
400 K, 853.97 kPa | 0.01998
400 K, 930.59 kPa | 0.02001
400 K, 972.98 kPa | 0.02003
400 K, 1025.6 kPa | 0.02006
400 K, 1088.2 kPa | 0.02009
400 K, 1153.3 kPa | 0.02012
400 K, 1240.9 kPa | 0.02017
400 K, 1319.7 kPa | 0.02022
400 K, 1397.4 kPa | 0.02025
400 K, 1462.5 kPa | 0.02029
400 K, 1615.7 kPa | 0.02039
400 K, 1688.5 kPa | 0.02043
400 K, 1768 kPa | 0.02049
400 K, 1876.4 kPa | 0.02057
400 K, 1956 kPa | 0.02063
400 K, 2349.8 kPa | 0.02093
400 K, 2474.2 kPa | 0.02104
400 K, 2539.4 kPa | 0.02109
400 K, 2835.4 kPa | 0.02138
400 K, 3021.7 kPa | 0.02156
400 K, 3266.3 kPa | 0.02184
400 K, 3463.7 kPa | 0.02205
400 K, 3614.2 kPa | 0.02225
400 K, 3864.1 kPa | 0.02256
400 K, 4152.9 kPa | 0.02298
400 K, 4564.1 kPa | 0.02363
400 K, 4898.5 kPa | 0.02421
400 K, 5193.2 kPa | 0.02477
400 K, 5460.7 kPa | 0.02531
400 K, 5742.7 kPa | 0.02594
400 K, 6016.6 kPa | 0.02658
400 K, 6359.6 kPa | 0.02746
400 K, 6659.9 kPa | 0.02831
400 K, 6950.7 kPa | 0.02917
400 K, 7241 kPa | 0.03009
400 K, 7553 kPa | 0.03115
400 K, 7833.9 kPa | 0.03216
400 K, 8142 kPa | 0.03332
400 K, 8490.6 kPa | 0.03475
400 K, 8799 kPa | 0.03604
400 K, 9139.9 kPa | 0.0375
400 K, 9483.5 kPa | 0.03903
400 K, 9833.2 kPa | 0.0407
400 K, 10191 kPa | 0.04234
400 K, 10589 kPa | 0.04429
400 K, 11000 kPa | 0.04619
400 K, 11434 kPa | 0.04827
400 K, 11902 kPa | 0.05055
400 K, 12397 kPa | 0.05295
400 K, 12979 kPa | 0.05567
400 K, 13719 kPa | 0.05901
400 K, 14342 kPa | 0.06179
400 K, 15061 kPa | 0.06486
400 K, 15882 kPa | 0.0684
400 K, 16792 kPa | 0.07201
400 K, 17814 kPa | 0.076
400 K, 18718 kPa | 0.07939
400 K, 19958 kPa | 0.08386
425 K, 94.41 kPa | 0.02078
425 K, 120.34 kPa | 0.0208
425 K, 155.2 kPa | 0.02081
425 K, 171.36 kPa | 0.02081
425 K, 192.07 kPa | 0.02082
425 K, 205.12 kPa | 0.02083
425 K, 228.29 kPa | 0.02084
425 K, 263.75 kPa | 0.02085
425 K, 289.54 kPa | 0.02086
425 K, 311.35 kPa | 0.02086
425 K, 345.33 kPa | 0.02088
425 K, 374.1 kPa | 0.02088
425 K, 392.73 kPa | 0.02089
425 K, 424.79 kPa | 0.0209
425 K, 466.85 kPa | 0.02092
425 K, 503.16 kPa | 0.02093
425 K, 552.86 kPa | 0.02095
425 K, 598.07 kPa | 0.02097
425 K, 629.86 kPa | 0.02098
425 K, 668.63 kPa | 0.021
425 K, 715.37 kPa | 0.02101
425 K, 764.24 kPa | 0.02103
425 K, 813.31 kPa | 0.02105
425 K, 867.54 kPa | 0.02108
425 K, 939.66 kPa | 0.02111
425 K, 997 kPa | 0.02114
425 K, 1067.1 kPa | 0.02117
425 K, 1141.5 kPa | 0.02121
425 K, 1213.4 kPa | 0.02124
425 K, 1299.4 kPa | 0.02129
425 K, 1385.6 kPa | 0.02133
425 K, 1442.8 kPa | 0.02137
425 K, 1506.3 kPa | 0.02141
425 K, 1587.6 kPa | 0.02145
425 K, 1656.3 kPa | 0.02149
425 K, 1757.6 kPa | 0.02155
425 K, 1833.5 kPa | 0.0216
425 K, 1920.5 kPa | 0.02166
425 K, 2344.2 kPa | 0.02196
425 K, 2479.6 kPa | 0.02206
425 K, 2578.5 kPa | 0.02214
425 K, 2931.1 kPa | 0.02244
425 K, 3150.4 kPa | 0.02264
425 K, 3325.5 kPa | 0.02282
425 K, 3586.1 kPa | 0.02307
425 K, 3797.1 kPa | 0.0233
425 K, 4066.4 kPa | 0.02362
425 K, 4298.8 kPa | 0.02388
425 K, 4546.2 kPa | 0.0242
425 K, 4863.6 kPa | 0.02464
425 K, 5124.6 kPa | 0.02501
425 K, 5454.2 kPa | 0.02553
425 K, 5739.4 kPa | 0.026
425 K, 6056.4 kPa | 0.02654
425 K, 6339.5 kPa | 0.02706
425 K, 6654.3 kPa | 0.02768
425 K, 7006 kPa | 0.0284
425 K, 7363.2 kPa | 0.02921
425 K, 7712.7 kPa | 0.03006
425 K, 8064.1 kPa | 0.03097
425 K, 8392.3 kPa | 0.03179
425 K, 8760.7 kPa | 0.03277
425 K, 9135.4 kPa | 0.03386
425 K, 9514.5 kPa | 0.03501
425 K, 9876.1 kPa | 0.03614
425 K, 10296 kPa | 0.03744
425 K, 10899 kPa | 0.03948
425 K, 11563 kPa | 0.04171
425 K, 11725 kPa | 0.04223
425 K, 12199 kPa | 0.04389
425 K, 12731 kPa | 0.04579
425 K, 13246 kPa | 0.04767
425 K, 14152 kPa | 0.0509
425 K, 14767 kPa | 0.05309
425 K, 15462 kPa | 0.05563
425 K, 16201 kPa | 0.05822
425 K, 17025 kPa | 0.06094
425 K, 17904 kPa | 0.06397
425 K, 18751 kPa | 0.06707
425 K, 19579 kPa | 0.06993
425 K, 20442 kPa | 0.07271
